According to article PMC4113215 (Biochemical and biophysical research communications, 2014):

Assays:
[1] = biological target: T1, mDMGDH (mature rat DMGDH) (Rattus norvegicus, UniProt Q63342); test: X-ray crystal structure, […] Å; assay type: binding; conditions: covalent; histidyl(N3)-(8alpha)FAD at His84; no folate
T1 sequence (Q63342 22-857): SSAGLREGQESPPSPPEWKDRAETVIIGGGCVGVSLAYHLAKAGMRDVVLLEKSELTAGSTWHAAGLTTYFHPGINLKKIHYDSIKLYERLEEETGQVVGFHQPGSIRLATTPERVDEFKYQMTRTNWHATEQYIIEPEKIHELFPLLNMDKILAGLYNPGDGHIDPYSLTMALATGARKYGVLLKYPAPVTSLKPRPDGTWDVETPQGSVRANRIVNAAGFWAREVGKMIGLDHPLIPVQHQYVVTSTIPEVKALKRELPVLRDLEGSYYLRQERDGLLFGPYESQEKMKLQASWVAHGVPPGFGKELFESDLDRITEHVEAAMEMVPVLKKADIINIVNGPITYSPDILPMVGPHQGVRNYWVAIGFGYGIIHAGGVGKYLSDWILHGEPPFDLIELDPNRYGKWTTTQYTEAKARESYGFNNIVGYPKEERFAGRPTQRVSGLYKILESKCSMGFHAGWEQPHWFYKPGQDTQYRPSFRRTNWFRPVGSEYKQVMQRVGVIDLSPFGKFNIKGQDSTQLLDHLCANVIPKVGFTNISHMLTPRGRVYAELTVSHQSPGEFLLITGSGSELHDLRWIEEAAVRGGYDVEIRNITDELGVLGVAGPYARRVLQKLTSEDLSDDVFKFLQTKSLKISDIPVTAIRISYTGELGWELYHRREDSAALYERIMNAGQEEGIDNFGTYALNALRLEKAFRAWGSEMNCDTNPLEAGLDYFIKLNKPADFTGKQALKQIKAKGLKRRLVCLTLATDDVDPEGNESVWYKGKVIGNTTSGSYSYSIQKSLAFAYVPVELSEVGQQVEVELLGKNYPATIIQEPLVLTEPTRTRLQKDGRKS

[2] = biological target: T2, prDMGDH-var2 (precursor DMGDHvar-2) (Rattus norvegicus, UniProt Q63342); test: X-ray crystal structure, […] Å; assay type: binding; conditions: covalent; histidyl(N3)-(8alpha)FAD at His84; THF also bound
T2 sequence (Q63342 1-857): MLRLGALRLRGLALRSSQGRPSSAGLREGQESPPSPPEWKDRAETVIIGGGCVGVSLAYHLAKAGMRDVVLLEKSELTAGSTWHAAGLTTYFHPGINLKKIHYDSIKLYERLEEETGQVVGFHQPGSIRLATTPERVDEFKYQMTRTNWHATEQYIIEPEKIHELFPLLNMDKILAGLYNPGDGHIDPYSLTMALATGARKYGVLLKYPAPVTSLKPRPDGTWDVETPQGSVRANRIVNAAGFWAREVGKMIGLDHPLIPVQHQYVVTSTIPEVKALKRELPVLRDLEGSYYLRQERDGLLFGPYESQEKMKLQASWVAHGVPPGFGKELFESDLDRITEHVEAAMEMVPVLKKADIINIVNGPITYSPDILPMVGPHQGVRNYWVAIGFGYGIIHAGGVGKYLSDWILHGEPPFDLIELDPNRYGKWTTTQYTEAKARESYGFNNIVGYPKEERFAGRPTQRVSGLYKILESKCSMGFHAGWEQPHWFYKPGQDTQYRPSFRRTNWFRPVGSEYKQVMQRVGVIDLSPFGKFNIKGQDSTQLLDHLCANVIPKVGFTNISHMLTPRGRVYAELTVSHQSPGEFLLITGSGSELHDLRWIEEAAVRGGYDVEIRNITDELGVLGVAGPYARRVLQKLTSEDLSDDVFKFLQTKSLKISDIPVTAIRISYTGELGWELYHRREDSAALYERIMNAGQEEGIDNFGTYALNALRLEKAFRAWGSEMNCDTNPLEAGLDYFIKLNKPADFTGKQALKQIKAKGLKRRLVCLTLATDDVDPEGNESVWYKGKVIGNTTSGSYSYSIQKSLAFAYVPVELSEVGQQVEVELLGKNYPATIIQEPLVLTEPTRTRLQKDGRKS

Question: `Cc1cc2nc3c(=O)[nH]c(=O)nc-3n(C[C@H](O)[C@H](O)[C@H](O)COP(=O)(O)OP(=O)(O)OC[C@H]3O[C@@H](n4cnc5c(N)ncnc54)[C@H](O)[C@@H]3O)c2cc1C` [FAD] was tested. Which “X-ray crystal structure, 2.32 Å” value [1] did it give?
Answer: N-terminal domain covalently binds cofactor FAD through His84

Question: What about the “X-ray crystal structure, 1.85 Å” value [2] of the same molecule?
Answer: two covalently bound FAD molecules, two folate molecules
